Source: PMC10458307, “New Scaffolds of Proteasome Inhibitors: Boosting Anticancer Potential by Exploiting the Synergy of In Silico and In Vitro Methodologies” (Pharmaceuticals, 2023)
Several values for one entry are separate records, joined by “and”; a condition that tells them apart may be missing. Equal values may be shown once.

Key:
[1] = system: proteasome CT-L active site; settings: literature values of known proteasome inhibitors; reference per compound; cited from earlier work
[2] = biological target: T1, 20S proteasome in K562 cell lysates, CT-L activity (Homo sapiens, UniProt P28074); assay: Proteasome inhibition assay in cell lysates, K562, CT-L; settings: for inhibition at 10 µM: read-out: percentage of proteasome inhibition, CT-L, cell lysates K562, at 10 µM; for inhibition at 100 µM: read-out: percentage of proteasome inhibition, CT-L, cell lysates K562, at 100 µM
T1 sequence (P28074 60-263): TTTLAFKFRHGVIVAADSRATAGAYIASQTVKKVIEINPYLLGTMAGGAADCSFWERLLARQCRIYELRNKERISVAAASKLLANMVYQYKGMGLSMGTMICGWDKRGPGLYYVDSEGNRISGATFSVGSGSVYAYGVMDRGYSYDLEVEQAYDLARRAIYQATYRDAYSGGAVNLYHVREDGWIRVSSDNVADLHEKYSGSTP
T1 sequence (P20618 29-241 partner): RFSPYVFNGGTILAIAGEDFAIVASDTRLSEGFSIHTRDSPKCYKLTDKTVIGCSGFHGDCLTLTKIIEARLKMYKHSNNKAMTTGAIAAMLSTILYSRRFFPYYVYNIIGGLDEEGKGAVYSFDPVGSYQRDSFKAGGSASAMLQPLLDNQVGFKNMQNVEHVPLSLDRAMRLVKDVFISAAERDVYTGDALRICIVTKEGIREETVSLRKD
Description: Cells were obtained from several cultured cell lines: Jurkat, K562, HT-29, and HCT116. Pellets with 20 × 10^6 cells were prepared and washed with cold sterile phosphate buffered saline (PBS), 1×, pH 7.4 (Gibco, Thermo Fisher Scientific, Paisley, UK). The preparation of the lysates from several cell lines was performed based on the methodology described by Gavioli et al. [67]. Cells were resuspended in buffer containing 50 mM TRIS-HCl pH 7.4 (Nzytech, Lisboa, Portugal), 5 mM MgCl2 (≥98% purity, Merck, Hamburg, Germany), 1 mM DTT (Merck, Hamburg, Germany), 2 mM ATP (≥98% purity, Enzo Life Sciences Inc., Farmingdale, NY, USA), and 250 mM saccharose (Merck, Hamburg, Germany). Glass beads (Merck, Hamburg, Germany) equivalent to the volume of the cell suspension were added, and the mixture was vortexed for 2 min at 4 °C. Beads and cell debris were removed using 5 min centrifugation at 1000× g and 4 °C, followed by 20 min of centrifugation at 10,000× g at 4 °C. Cell lysates containing proteasomes were resuspended in “activity buffer” [50 mM TRIS-HCl (pH 7.4), 5 mM MgCl2, 1 mM DTT, 2 mM ATP (≥98% purity, Enzo Life Sciences Inc., Farmingdale, NY, USA), and 500 µM EDTA (≥98% purity, Merck, Hamburg, Germany)]. Protein concentration was determined using the Pierce™ BCA protocol (Thermo Fisher Scientific, Rockford, IL, USA). […] DMSO was added in an equal volume as used for the untreated compounds as a way to assess/control its influence in the assay. Untreated cells were used as control. In each well of a 96-well plate, 25 µL of lysate were seeded in duplicate with 25 µL of the compound to test; in the control, 25 µL of activity buffer were added to the 25 µL of lysate. A blank (50 µL of activity buffer) was added to the wells in quadruplicate. Cell lysates, pre-treated or not with different concentrations of the test compounds, were incubated for 30 min at 37 °C. […] Stock solutions (10 mM) of each substrate were prepared in DMSO, diluted in activity buffer, and 50 µL were added to all wells (final concentration of each substrate = 100 µM), followed by an incubation at 37 °C for 60 min. Samples fluorescence was measured at an excitation wavelength of 360 nm and emission of 465 nm; the fluorescence measures were performed using the GloMax-Multi + Detection System (Promega Corp., Madison, WI, USA). Activity was evaluated in fluorescence units, after being converted to percentage of proteasome inhibition and, whenever possible, expressed as IC50 by plotting the inhibition data of each compound at different concentrations against the log of the concentration of the inhibitor, using the GraphPad Prism software version 7. At least eight different concentrations of the test compounds were used.

HT-29 cells = assay: Cell viability, MTT assay, HT-29; assay type: cell-based, human; settings: 72 h; for IC50: Homo sapiens, HT-29, mean ± SD; for percentage of cell viability, MTT, HT-29: at 100 µM
Description: (§1) Whenever possible, additional concentrations were tested and IC50 values were determined.
(§2) Human leukemia Jurkat E6.1 T-cell line and K562-cell line were originally obtained from ATCC Collections (Manassas, VA, USA); human HT-29 and HCT116 colorectal carcinoma-cell lines were obtained from ECACC (Porton Down, Porton, UK). Cells were passaged for less than 6 months after and routinely tested for mycoplasma contamination using Mycoalert detection kit (Lonza, Basel, Switzerland). Jurkat, K562, and HT-29 cells were maintained in Roswell Park Memorial Institute (RPMI) 1640 with GlutaMAX™, supplemented with 1% antibiotic mixture (100 µg/mL streptomycin and 100 U/mL penicillin) and 10% heat-inactivated foetal bovine serum (FBS) (all from Gibco, Thermo Fisher Scientific, Paisley, UK). HCT116 cells were maintained in Dulbecco’s Modified Eagle Medium (DMEM) with GlutaMAX™, supplemented with 1% antibiotic mixture (100 µg/mL streptomycin and 100 U/mL penicillin) and 10% heat-inactivated FBS (all from Gibco, Thermo Fisher Scientific, Paisley, UK). Incubation was performed at 37 °C in a 5% CO2 atmosphere. Cells were routinely passaged every 2 or 3 days at 70–90% confluence; TrypLE Express (Gibco, Thermo Fisher Scientific, Paisley, UK) was used as dissociation agent for adherent cells. Trypan blue (Gibco, Thermo Fisher Scientific, Paisley, UK) was used to assess cell viability using the dye exclusion test.
(§3) To assess cell viability, the MTT assay was performed. Jurkat/K562/HT-29/HCT116 cell lines were seeded in triplicate (10,000 cells/well) in 96-well plates with 50 µL of complete medium and incubated at 37 °C, 5% CO2 for 24 h to allow the cells to adhere to the plate (in the case of adherent cells). […] Untreated cells seeded in triplicate were used as control. The blank was performed in triplicate with 100 µL of culture medium. The cells were incubated with the compounds, in triplicate, in 100 µL of total volume, at 37 °C, 5% CO2 for 72 h. […] In suspension cells (Jurkat), 25 µL of MTT were directly added to each well and, after 3 h 30 m of incubation, 100 µL of DMSO were added to solubilize the formazan crystals; in adherent cells (HT-29 and HCT116), the culture medium was removed, 25 µL of MTT were added to each well and, after 3 h 30 m of incubation, upon MTT removal, 100 µL of DMSO were added to solubilize the formazan crystals. After 15 min, the samples absorbance was measured at 570 nm and the percentage of cell viability was determined.

[3] = system: proteasome C-L active site; settings: literature values; ref 34 (bortezomib), 35 (ixazomib); cited from earlier work
K562 cells = assay: Cell viability, MTT assay, K562; assay type: cell-based, human; settings: at 100 µM, 72 h
Description: as §1, §2, §3

[4] = at 100 µM, Table 2 legend: bortezomib 10 µM
[5] = Table 2 legend: bortezomib 10 µM

Structure (SMILES) | percentage of proteasome inhibition, CT-L, cell lysates K562 ([2]; at 10 µM) [%] | percentage of proteasome inhibition, CT-L, cell lysates K562 [2, 4] | IC50 (HT-29 cells) [µM] | inhibition at 10 µM [2] [%] | inhibition at 100 µM [2, 5] [%] | IC50 [1] [nM] | IC50 [3] [µM] | percentage of cell viability, MTT, HT-29 (HT-29 cells) [%] | percentage of cell viability, MTT, K562 (K562 cells) [%]
CC(C)C[C@H](NC(=O)[C@H](Cc1ccccc1)NC(=O)c1cnccn1)B(O)O [Bortezomib, bortezomib, reference compound] | 95.17 | 99.60% and 100% | 0.00973 | – | – | 7 | 0.074 | – | –
Cc1ccc2ccccc2c1CSc1ncnc2c1ncn2C1OC(CO)C(O)C1O (centres unmarked) [Compound 1] | – | 63% | 61.7 | 0 | 62.7 | – | – | 23 | 18
O=C1c2ccccc2C(=O)c2c(Nc3ccc(S(=O)(=O)N(CCO)CCO)cc3)ccc(O)c21 [Compound 2] | – | 40% | – | 13.2 | 40.1 | – | – | 65 | 86.52
CC(C)c1nc(CN(C)C(=O)N[C@@H](CCN2CCOCC2)C(=O)N[C@H](CC[C@H](Cc2ccccc2)NC(=O)OCc2cncs2)Cc2ccccc2)cs1 [Compound 5, cobicistat, reference compound] | – | – | 70.5 | – | – | – | – | 25 | –

The next lines start with results.

percentage of proteasome inhibition, CT-L, cell lysates K562 ([2]; at 10 µM) [%] | percentage of proteasome inhibition, CT-L, cell lysates K562 [2, 4] | IC50 (HT-29 cells) [µM] | inhibition at 10 µM [2] [%] | inhibition at 100 µM [2, 5] [%] | Structure (SMILES) | IC50 [1] [nM] | IC50 [3] [µM] | percentage of cell viability, MTT, HT-29 (HT-29 cells) [%] | percentage of cell viability, MTT, K562 (K562 cells) [%]
– | 59% | – | 9.34 | 59.1 | Cc1ccc(/C(=N/NS(=O)(=O)c2ccc([N+](=O)[O-])cc2)Sc2cc(Cl)c(C)cc2S(N)(=O)=O)cc1 [Compound 3] | – | – | – | –
– | – | 43 | – | – | C#CCCN1CCN(c2ccc(-n3c(=O)ccc4cnc5ccc(-c6ccc(N)nc6)cc5c43)cc2C(F)(F)F)CC1 [Compound 4, 9-(6-Aminopyridin-3-yl)-1-(4-(4-(but-3-yn-1-yl)piperazin-1-yl)-3-(trifluoromethyl)phenyl)benzo[h][1,6]naphthyridin-2(1H)-one] | – | – | 34 | –
